Legend:
hIL-6 mRNA = test: Quantification of hIL-6 mRNA in LPS-stimulated U937 macrophages (real-time PCR); assay type: cell-based, human; design: key: Active: an active compound is one that causes a ≧20% inhibition in IL-6 mRNA at a concentration less than or equal to 10 μM; details: U937 cells differentiated with PMA, 1 h pretreatment, LPS 1 μg/mL, 3 h; IL-6 mRNA normalised to hCyclophilin; compound ≤10 μM
Description: In this example, hIL-6 mRNA in tissue culture cells was quantitated to measure the transcriptional inhibition of hIL-6 when treated with a compound of the invention.
A human leukemic monocytic lymphoma cell line (U937) was plated (3.2×10^5 cells per well) in a 96-well plate in 100 μL RPMI 1640+10% FBS, and differentiated into macrophages with PMA (60 ng/mL) for 3 days prior to the addition of the compound of interest. The cells were pretreated for 1 h with the test compound in DMSO prior to stimulation with lipopolysaccharide from Escherichia coli at 1 μg/mL. The cells were incubated for 3 h before harvest. At the time of harvest, cells were rinsed in 200 μL PBS. Cell lysis solution (70 μL) was added the cells for 10 min, and mRNA was then prepared using the “mRNA Catcher PLUS plate” (Invitrogen), according to the protocol supplied.
(§1) The eluted mRNA isolated was then used in a one-step quantitative real-time PCR reaction, using components of the UltraSense kit together with Applied Biosystems primer-probe mixes. 10 μL of template was amplified with 1.75 μL of IL-6 primer-probe, and 1 μL of hCyclophilin primer probe, and the reaction was carried out in multiplex. Real-time PCR data was analyzed, normalizing the Ct values for hIL-6 to hCyclophilin, prior to determining the fold induction of each unknown sample, relative to the control.

hVCAM-1 mRNA = test: Quantification of hVCAM-1 mRNA in TNF-α-stimulated HUV-EC-C cells (real-time PCR); assay type: cell-based, human; design: key: Active: an active compound is one that causes a ≧20% inhibition in VCAM-1 mRNA at a concentration less than or equal to 10 μM; details: 1 h pretreatment, TNF-α 10 ng/mL, 24 h, VCAM-1 mRNA normalised to hCyclophilin, compound ≤10 μM
Description: In this example, hVCAM-1 mRNA in tissue culture cells was quantitated to measure the transcriptional inhibition of hVCAM when treated with a compound of the invention.
A human umbilical vein endothelial cell line (HUV-EC-C) was plated in a 96-well plate (5.0×10^3 cells/well) in 100 μL EGM complete media and incubated for 24 h prior to the addition of the compound of interest. The cells were pretreated for 1 h with the test compound in DMSO prior to stimulation with tumor necrosis factor-α (10 ng/mL). The cells were incubated for an additional 24 h before harvest. At time of harvest, the cells were rinsed in 200 μL PBS, and cell lysis solution (70 μL) was then added the cells for 10 min. mRNA was then prepared using the “mRNA Catcher PLUS plate” (Invitrogen), according to the protocol supplied.
as §1, with “mRNA” for “mRNA isolated”, “hVCAM-1” for “IL-6”, “hVCAM-1” for “hIL-6”

Row | Structure (SMILES) | Inhibition of IL-6 expression (hIL-6 mRNA) | Inhibition of VCAM-1 expression (hVCAM-1 mRNA)
1 | Cc1cc(-c2nc3cc(OCCN(C)C)ccc3c(=O)[nH]2)cc(C)c1O [Example 7, 7-(2-dimethylamino-ethoxy)-2-(4-hydroxy-3,5-dimethylphenyl)-3H-quinazolin-4-one] | Active | Active
2 | Cc1cc(-c2nc3ccc(Nc4ccccn4)cc3c(=O)[nH]2)cc(C)c1O [Example 9, 2-(4-hydroxy-3,5-dimethyl-phenyl)-6-(pyridin-2-ylamino)-3H-quinazolin-4-one] | Active | Active
3 | Cc1cc(-c2nc3ccc(CN4CCN(C)CC4)cc3c(=O)[nH]2)cc(C)c1O [Example 10, 2-(4-hydroxy-3,5-dimethylphenyl)-6-((4-methylpiperazin-1-yl)methyl)quinazolin-4(3H)-one] | Active | Active
4 | Cc1cc(-c2nc3cc(F)cc(F)c3c(=O)[nH]2)cc(C)c1OCCO [Example 15, 5,7-difluoro-2-(4-(2-hydroxyethoxy)-3,5-dimethylphenyl)quinazolin-4(3H)-one] | Active | Inactive
5 | Cc1cc(-c2nc3ccc(CN4CCOCC4)cc3c(=O)[nH]2)cc(C)c1OCCO [Example 17, 2-[4-(2-hydroxyethoxy)-3,5-dimethyl-phenyl]-6-morpholin-4-ylmethyl-3H-quinazolin-4-one] | Active | Inactive
6 | COc1cc(OC)c2c(=O)[nH]c(-c3cc(C)c(OCC(O)CO)c(C)c3)nc2c1 (stereo not drawn) [Example 18, 2-[4-(2,3-Dihydroxy-propoxy)-3,5-dimethyl-phenyl]-5,7-dimethoxy-3H-quinazolin-4-one] | Active | Active
7 | COc1cc(OC)c2c(=O)[nH]c(-c3ccc(OCCO)cc3)nc2c1 [Example 20, 2-[4-(2-hydroxy-ethoxy)-phenyl]-5,7-dimethoxy-3H-quinazolin-4-one] | Active | Active
8 | COc1cc(OC)c2c(=O)[nH]c(-c3ccc(OCCO)c4ccccc34)nc2c1 [Example 21, 2-[4-(2-hydroxy-ethoxy)-naphthalen-1-yl]-5,7-dimethoxy-3H-quinazolin-4-one] | Active | Inactive
9 | COc1cc(OC)c2c(=O)[nH]c(-c3ccc4oc(CO)cc4c3)nc2c1 [Example 22, 2-(2-hydroxymethyl-benzofuran-5-yl)-5,7-dimethoxy-3H-quinazolin-4-one] | Active | Active
10 | COc1cc(OCCOCc2ccccc2)cc2nc(-c3cc(C)c(OCCO)c(C)c3)[nH]c(=O)c12 [Example 23, 7-(2-benzyloxy-ethoxy)-2-[4-(2-hydroxy-ethoxy)-3,5-dimethyl-phenyl]-5-methoxy-3H-quinazolin-4-one] | Active | Active
11 | CNC(=O)COc1c(C)cc(-c2nc3cc(OC)cc(OC)c3c(=O)[nH]2)cc1C [Example 25, 2-[4-(5,7-dimethoxy-4-oxo-3,4-dihydro-quinazolin-2-yl)-2,6-dimethyl-phenoxy]-N-methyl-acetamide] | Active | Active
12 | COc1ccc(NC(=O)COc2c(C)cc(-c3nc4cc(OC)cc(OC)c4c(=O)[nH]3)cc2C)cc1 [Example 26, 2-[4-(5,7-Dimethoxy-4-oxo-3,4-dihydro-quinazolin-2-yl)-2,6-dimethyl-phenoxy]-N-(4-methoxy-phenyl)-acetamide] | Active | Active
13 | COc1cc(OC)c2c(=O)[nH]c(-c3cc(C)c(OCCCCO)c(C)c3)nc2c1 [Example 28, 2-[4-(4-hydroxy-butoxy)-3,5-dimethyl-phenyl]-5,7-dimethoxy-3H-quinazolin-4-one] | Active | Active
14 | Cc1cc(-c2nc3cc(Cl)ccc3c(=O)[nH]2)cc(C)c1OCCO [Example 29, 7-chloro-2-(4-(2-hydroxyethoxy)-3,5-dimethylphenyl)quinazolin-4(3H)-one] | Active | Active
15 | Cc1cc(-c2nc3c(Cl)cccc3c(=O)[nH]2)cc(C)c1OCCO [Example 30, 8-chloro-2-(4-(2-hydroxyethoxy)-3,5-dimethylphenyl)quinazolin-4(3H)-one] | Active | Inactive
16 | COc1cccc2c(=O)[nH]c(-c3cc(C)c(OCCO)c(C)c3)nc12 [Example 31, 2-(4-(2-hydroxyethoxy)-3,5-dimethylphenyl)-8-methoxyquinazolin-4(3H)-one] | Active | Active
17 | Cc1cc(-c2nc3cccc(Cl)c3c(=O)[nH]2)cc(C)c1OCCO [Example 32, 5-chloro-2-(4-(2-hydroxyethoxy)-3,5-dimethylphenyl)quinazolin-4(3H)-one] | Active | Active
18 | COc1ccc2c(=O)[nH]c(-c3cc(C)c(OCCO)c(C)c3)nc2c1 [Example 33, 2-(4-(2-hydroxyethoxy)-3,5-dimethylphenyl)-7-methoxyquinazolin-4(3H)-one] | Active | Active
19 | Cc1cc(-c2nc3ccc(CN4CCN(C)CC4)cc3c(=O)[nH]2)cc(C)c1OCCO [Example 34, 2-(4-(2-hydroxyethoxy)-3,5-dimethylphenyl)-6-((4-methylpiperazin-1-yl)methyl)quinazolin-4(3H)-one] | Active | Active
20 | COc1cc(OC)c2c(=O)[nH]c(-c3ccc(OCCNc4nnc(-c5ccccc5)[nH]4)c(C)c3)nc2c1 [Example 35, 5,7-Dimethoxy-2-{3-methyl-4-[2-(5-phenyl-4H-[1,2,4]triazol-3-ylamino)-ethoxy]-phenyl}-3H-quinazolin-4-one] | Active | Active
21 | COc1cc(OC)c2c(=O)[nH]c(-c3cc(C)c(OCCNc4nc(C)no4)c(C)c3)nc2c1 [Example 36, 2-{3,5-Dimethyl-4-[2-(3-methyl-[1,2,4]oxadiazol-5-ylamino)-ethoxy]-phenyl}-5,7-dimethoxy-3H-quinazolin-4-one] | Active | Active
22 | COc1cc(OC)c2c(=O)[nH]c(-c3cc(C)c(OCCNC(C)=O)c(C)c3)nc2n1 [Example 37, N-{2-[4-(5,7-dimethoxy-4-oxo-3,4-dihydro-pyrido[2,3-d]pyrimidin-2-yl)-2,6-dimethyl-phenoxy]-ethyl}-acetamide] | Active | Inactive
23 | COc1cc(OC)c2c(=O)[nH]c(-c3cc(C)c(CNC(C)=O)c(C)c3)nc2c1 [Example 38, N-(4-(5,7-dimethoxy-4-oxo-3,4-dihydroquinazolin-2-yl)-2,6-dimethylbenzyl)acetamide] | Active | Active
24 | COc1cc(OC)c2c(=O)[nH]c(-c3cc(C)c(CNC(C)=O)c(C)c3)nc2n1 [Example 39, N-[4-(5,7-dimethoxy-4-oxo-3,4-dihydro-pyrido[2,3-d]pyrimidin-2-yl)-2,6-dimethyl-benzyl]-acetamide] | Active | Active

Source: US9757368B2, “Anti-inflammatory agents” (Resverlogix Corp., priority 2009, dated 2017)
